From article PMC11122949, “Metabolic Blockade-Based Genome Mining of Sea Anemone-Associated Streptomyces sp. S1502 Identifies Atypical Angucyclines WS-5995 A–E: Isolation, Identification, Biosynthetic Investigation, and Bioactivities” (Marine Drugs, 2024)

Assays:
NCM-460 = experiment: MTT cytotoxicity assay, NCM-460 (normal cells); format: cell-based; settings: 72 h
Experimental: (§1) Compounds 1–5 were tested for their cytotoxic activities against different normal and tumor human cell lines, the MTT assay was used to assess cytotoxicity as described previously. Briefly, different tumor cells and normal cells were seeded onto 96-well plates at the appropriate density and allowed to attach overnight. Drugs at various concentrations were added to the culture medium and cells were cultured for another 68 h at 37 °C. MTT (5 mg/mL, 20 μL/well) was then added to the wells for additional 4 h, and the medium was discarded before 150 μL of DMSO was added to dissolve the MTT-formazan crystals. Absorbance was measured at 540 nm, with background subtraction at 670 nm using Model 550 Microplate Reader (Bio-Rad, Hercules, CA, USA). The Bliss method was used to calculate the half maximal (50%) inhibitory concentration (IC50) values. Data represent the mean ± SD of at least three independent experiments.

A549 = experiment: MTT cytotoxicity assay, A549; format: cell-based, human; settings: A549, 72 h
Experimental: as §1

Huvec = experiment: MTT cytotoxicity assay, Huvec (normal cells); format: cell-based; settings: 72 h, Huvec normal human cell line
Experimental: as §1

BT-549 = experiment: MTT cytotoxicity assay, BT-549; format: cell-based, human; settings: BT-549, 72 h
Experimental: as §1

RBE = experiment: MTT cytotoxicity assay, RBE; format: cell-based, human; settings: 72 h
Experimental: as §1

MCF-7 = experiment: MTT cytotoxicity assay, MCF-7; format: cell-based, human
Experimental: as §1

[1] = system: MCF-7, BT-549, RBE and A549; NCM-46 and Huvec; experiment: MTT cytotoxicity, whole panel of cell lines; format: cell-based; settings: four human cancer and two normal human cell lines
Experimental: as §1

Eimeria tenella = experiment: In vitro anticoccidial activity (qPCR); format: cell-based; settings: 48 h
Experimental: The number of Eimeria tenella spores and the cells were seeded in a 24-well plate at a ratio of 1:1 and incubated for 6 h, and the medium was discarded and washed with PBS three times. Then, 500 μL of medium was added to each well, followed by the addition of the medium containing the compounds, the blank control group (no spores and no compounds) and positive control group (with spores but no compound) were set, and 10 μM of sulfaclozinium chloride sodium served as a control drug, and three replicates were set up. The culture remained in an incubator containing 5% CO2 at 38 °C for 48 h. After 48 h, the medium was discarded and washed with PBS three times, and the total RNA of each well was extracted and reverse-transcribed into cDNA. qPCR was used to detect the effects of the compounds on the growth and development of E. tenella.

[2] = system: Eimeria tenella infections; set-up: method as in PMID 7451360; settings: animal experiments; cited from earlier work
fungi = system: fungi; set-up: method as in PMID 19798499; settings: cited from earlier work
[3] = NCM460, NCM-460 normal human cell line
[4] = Homo sapiens, MCF7, MCF-7, 72 h

`COc1cccc2c1C(=O)c1c(O)c3c(c(O)c1C2=O)C[C@@](O)(C(=O)CO)C[C@@H]3O[C@H]1C[C@H](N)[C@H](O)[C@H](C)O1` [Adriamycin, reference compound] gave an IC50 (NCM-460; [3]) of 3.24 µM, an IC50 (A549; Homo sapiens) of 4.62 µM and an IC50 (Huvec; Homo sapiens, HUVEC) of 3.87 µM. The IC50 (BT-549; Homo sapiens) was 6.42 µM, the IC50 (RBE; Homo sapiens) was 3.62 µM and the IC50 (MCF-7; [4]) was 2.96 µM.

For `N.N.[Cl][Pt][Cl]` [Cisplatin, reference compound], the IC50 (NCM-460; NCM-460 normal human cell line) was 19 µM, the IC50 (A549) was 9.34 µM and the IC50 (Huvec) was 5.26 µM. It also gave an IC50 (BT-549) of 14.2 µM, an IC50 (RBE) of 4.26 µM and an IC50 (MCF-7; MCF-7, 72 h) of 4.49 µM.

In the case of `CCOC(=O)c1cc(C)cc(OC)c1C1=C(O)C(=O)c2c(O)cccc2C1=O` [Compound 1, WS-5995 E], the IC50 (NCM-460; [3]) is reported as > 50 µM, the “cytotoxic effects against the tested cell lines” value (“cytotoxic effects” for short) [1] is reported as “did not exhibit cytotoxic effects” and the IC50 (A549; Homo sapiens) is reported as > 50 µM. The IC50 (Huvec; Homo sapiens, HUVEC) was > 50 µM, the IC50 (BT-549; Homo sapiens) was > 50 µM and the IC50 (RBE; Homo sapiens) was > 50 µM. The “in vitro anti-E. tenella bioactivity” value (Eimeria tenella) was “only exhibited activity at high concentrations” and the IC50 (MCF-7; [4]) was > 50 µM.

For `COc1cc(C)cc2c(=O)oc3c(c12)C(=O)c1cccc(O)c1C3=O` [Compound 2, WS-5995A], the IC50 (NCM-460; [3]) was 40.8 µM, the IC50 (A549; Homo sapiens) was > 50 µM and the IC50 (Huvec; Homo sapiens, HUVEC) was 31.2 µM. For the same compound, the IC50 (BT-549; Homo sapiens) was > 50 µM, the IC50 (RBE; Homo sapiens) was 21.4 µM and the “protective activity against Eimeria tenella infections” value [2] was “excellent protective activity”. The “in vitro anti-E. tenella bioactivity” value (Eimeria tenella) was “significant anticoccidial activity”, the IC50 (Eimeria tenella; Eimeria tenella, read-out: anti-E. tenella activity IC50) was 2.21 µM and the IC50 (MCF-7; [4]) was > 50 µM.

In the case of `COc1cc(C)cc(C(=O)O)c1C1=CC(=O)c2c(O)cccc2C1=O` [Compound 3, WS-5995B], the IC50 (NCM-460; [3]) is reported as 18.5 µM, the IC50 (A549; Homo sapiens) is reported as > 50 µM and the IC50 (Huvec; Homo sapiens, HUVEC) is reported as 7.67 µM. For the same compound, the IC50 (BT-549; Homo sapiens) was 5.97 µM, the IC50 (RBE; Homo sapiens) was 16.8 µM and the “protective activity against Eimeria tenella infections” value [2] was “excellent protective activity”. The antifungal activity (fungi) was “antifungal activity” and the IC50 (MCF-7; [4]) was 19.6 µM.

With `COc1cc(C)cc(C(=O)O)c1C1=C(O)C(=O)c2c(O)cccc2C1=O` [Compound 4, WS-5995C] the IC50 (NCM-460; [3]) was > 50 µM, the “cytotoxic effects” value [1] was “did not exhibit cytotoxic effects” and the IC50 (A549; Homo sapiens) was > 50 µM. For the same compound, the IC50 (Huvec; Homo sapiens, HUVEC) was > 50 µM, the IC50 (BT-549; Homo sapiens) was > 50 µM and the IC50 (RBE; Homo sapiens) was > 50 µM. For the same compound, the “in vitro anti-E. tenella bioactivity” value (Eimeria tenella) was “not active” and the IC50 (MCF-7; [4]) was > 50 µM.

In the case of `COC(=O)c1cc(C)cc(OC)c1C1=C(O)C(=O)c2c(O)cccc2C1=O` [Compound 5, WS-5995D], the IC50 (NCM-460; [3]) is reported as > 50 µM, the “cytotoxic effects” value [1] is reported as “did not exhibit cytotoxic effects” and the IC50 (A549; Homo sapiens) is reported as > 50 µM. For the same compound, the IC50 (Huvec; Homo sapiens, HUVEC) was > 50 µM, the IC50 (BT-549; Homo sapiens) was > 50 µM and the IC50 (RBE; Homo sapiens) was > 50 µM. For the same compound, the “in vitro anti-E. tenella bioactivity” value (Eimeria tenella) was “only exhibited activity at high concentrations” and the IC50 (MCF-7; [4]) was > 50 µM.
